This is an account of results in patent US6818767B2, “Quinoline derivatives” (Hoffmann-La Roche Inc., priority 2001, dated 2004).

The target of the test is T1, mouse NPY5-receptor (mNPY5) (Mus musculus, UniProt O70342).
T1 construct: The full-length cDNA encoding the mouse NPY5 (mNPY5) receptor was amplified from mouse brain cDNA; expressed in transfected cells; membrane preparation
T1 sequence (O70342 1-466): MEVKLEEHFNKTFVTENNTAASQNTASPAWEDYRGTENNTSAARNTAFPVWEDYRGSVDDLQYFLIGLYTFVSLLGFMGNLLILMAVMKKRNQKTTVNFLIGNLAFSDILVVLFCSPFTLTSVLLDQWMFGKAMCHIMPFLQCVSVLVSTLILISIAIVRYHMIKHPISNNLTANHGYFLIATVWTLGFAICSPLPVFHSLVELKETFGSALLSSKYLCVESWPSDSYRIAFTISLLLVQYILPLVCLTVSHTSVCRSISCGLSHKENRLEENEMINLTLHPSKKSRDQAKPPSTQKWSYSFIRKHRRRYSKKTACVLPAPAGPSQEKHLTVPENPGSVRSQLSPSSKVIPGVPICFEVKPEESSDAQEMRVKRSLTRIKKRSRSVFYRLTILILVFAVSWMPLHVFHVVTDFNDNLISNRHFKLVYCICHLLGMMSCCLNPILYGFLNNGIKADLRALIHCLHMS
As to the kind of experiment: Radioligand competition binding. The conditions noted are these: displacement of 100 pM [125I]labelled peptide YY, membranes of HEK293 cells expressing recombinant mNPY5, 1 h at 22° C.; read-out: NPY5-R (mouse) IC50. From the text:
The full-length cDNA encoding the mouse NPY5 (mNPY5) receptor was amplified from mouse brain cDNA using specific primers, designed based on the published sequence, and Pfu DNA-Polymerase (Stratagene). The amplification product was subcloned into the mammalian expression vector pcDNA3 using Eco RI and XhoI restriction sites. Positive clones were sequenced and one clone, encoding the published sequence was selected for generation of stable cell clones.
Human embryonic kidney 293 (HEK293) cells were transfected with 10 μg mNPY5 DNA using the lipofectamine reagent (Gibco BRL) according to the manufacturer's instruction. Two days after transfection, geneticin selection (1 mg/ml) was initiated and several stable clones were isolated. One clone was further used for pharmacological characterization.
Human embryonic kidney 293 cells (HEK293), expressing recombinant mouse NPY5-receptor (mNPY5) were broken by three freeze/thawing cycles in hypotonic Tris buffer (5 mM, pH 7.4, 1 mM MgCl2), homogenized and centrifuged at 72,000×g for 15 min. The pellet was washed twice with 75 mM Tris buffer, pH 7.4, containing 25 mM MgCl2 and 250 mM sucrose, 0.1 mM phenylmethylsulfonylfluoride and 0.1 mM 1,10-pheneanthrolin, resuspended in the same buffer and stored in aliquots at −80° C. Protein was determined according to the method of Lowry using bovine serum albumine (BSA) as a standard. […]

`CCCCc1cc2c(N3CCCC3)ccnc2cc1O` [Example 34, 6-butyl-4-pyrrolidin-1-yl-quinolin-7-ol]: the IC50 (usually the concentration needed to halve the response being measured) came to 9.9 nM.
Take `Cc1cc(N2CCCC2)c2ccc(OCC3CC3)cc2n1` [Example 5, 7-cyclopropylmethoxy-2-methyl-4-pyrrolidin-1-yl-quinoline]: the IC50 turned out to be 27 nM.
